This passage reports EC50 results from patent US20150087673A1, “METHODS FOR USING AND BIOMARKERS FOR AMPK-ACTIVATING COMPOUNDS” (RIGEL PHARMACEUTICALS, INC., priority 2013, published 2015).

This assay has as its system AMPK. Kind of assay: AMPK activation assay (enzyme-linked immunosorbent assay). Type of assay: cell-based. How it is done: Compounds were assayed for their ability to activate AMPK using an enzyme-linked immunosorbent assay. Reagents and procedures for measuring AMPK activation are well known and kits for AMPK activation assays are commercially available.

For orientation: EC50 means the concentration at which the effect is half-maximal. The low end stands for an effect from little substance, the high end for a need for much substance.

`N#Cc1ccc(CN2CCC(NC(=O)c3ccc(C(=O)N4CCC(C(=O)c5ccc(N=[N+]=[N-])cc5)CC4)nc3)CC2)cc1` [Compound 240, 6-(4-(4-azidobenzoyl)piperidine-1-carbonyl)-N-(1-(4-cyanobenzyl)piperidin-4-yl)nicotinamide]: the half-maximal effective concentration (EC50) is less than 500 nM.

For the compound `N#Cc1ccc(CN2CCC(NC(=O)c3ccc(C(=O)N4CCN(c5ccc(S(=O)(=O)C6CC6)cc5)CC4)cn3)CC2)cc1` [Compound 256, N-(1-(4-cyanobenzyl)piperidin-4-yl)-5-(4-(4-(cyclopropylsulfonyl)phenyl)piperazine-1-carbonyl)picolinamide], the EC50 is less than 500 nM. Consider `O=C(NC1CCN(Cc2ccccc2)CC1)c1ccc(Nc2cccc(-c3ccccc3)c2)cn1` [Compound 114, N-(1-benzylpiperidin-4-yl)-5-(biphenyl-3-ylamino)picolinamide], for which the EC50 was in the range of 1000 to 5000 nM.

Take `N#Cc1ccc(Oc2ccc(NC(=O)c3ccc(C(=O)N4CCC(C(=O)c5ccc(F)cc5F)CC4)nc3)cn2)cc1` [Compound 463, N-(6-(4-cyanophenoxy)pyridin-3-yl)-6-(4-(2,4-difluorobenzoyl)piperidine-1-carbonyl)nicotinamide]: the EC50 is less than 500 nM. To `O=C(c1ccc(C(=O)N2CCN(CCc3ccccc3)CC2)nc1)N1CCN(c2ccccc2)CC1` [Compound 90, (4-phenethylpiperazin-1-yl)(5-(4-phenylpiperazine-1-carbonyl)pyridin-2-yl)methanone] belongs more than 10000 nM. Under `N#Cc1ccc(CN2CCC(NC(=O)c3ccc(C(=O)N4CCC(Oc5ccc(C#N)c(Cl)c5)CC4)cn3)CC2)cc1` [Compound 156, 5-(4-(3-chloro-4-cyanophenoxy)piperidine-1-carbonyl)-N-(1-(4-cyanobenzyl)piperidin-4-yl)picolinamide] stands less than 500 nM.

`N#Cc1ccc(Oc2ccc(NC(=O)c3ccc(C(=O)N4CCC(C(=O)c5ccc(F)cc5F)CC4)nc3)nc2)cc1` [Compound 469, N-(5-(4-cyanophenoxy)pyridin-2-yl)-6-(4-(2,4-difluorobenzoyl)piperidine-1-carbonyl)nicotinamide] registered a concentration giving a half-maximal response (EC50) of less than 500 nM. Under `O=C(NC1CCN(Cc2cc(F)cc(F)c2)CC1)c1ccc(C(=O)N2CCC(Oc3ccc(F)cc3)CC2)cn1` [Compound 295, N-(1-(3,5-difluorobenzyl)piperidin-4-yl)-5-(4-(4-fluorophenoxy)piperidine-1-carbonyl)picolinamide] stands less than 500 nM. Under `O=C(Nc1ccc(C(=O)N2CCN(Cc3ccc(F)cc3)CC2)cn1)c1ccc(-c2ccccc2)cc1` [Compound 170, N-(5-(4-(4-fluorobenzyl)piperazine-1-carbonyl)pyridin-2-yl)biphenyl-4-carboxamide] stands more than 10000 nM. To `COc1ccc(C(=O)C2CCN(c3ccc(C(=O)NC4CCN(Cc5ccc(C#N)cc5)CC4)nn3)CC2)cc1` [Compound 362, N-(1-(4-cyanobenzyl)piperidin-4-yl)-6-(4-(4-methoxybenzoyl)piperidin-1-yl)pyridazine-3-carboxamide] belongs less than 500 nM; to `O=C(NC1CCN(Cc2ccccc2)CC1)c1ccc(Nc2cccc(Oc3ccccc3)c2)cn1` [Compound 112, N-(1-benzylpiperidin-4-yl)-5-(3-phenoxyphenylamino)picolinamide], 1000 to 5000 nM. `N#Cc1ccc(CN2CCC(C(=O)Nc3ccc(C(=O)N4CCC(C(=O)c5ccc(F)cc5)CC4)cn3)CC2)cc1` [Compound 175, 1-(4-cyanobenzyl)-N-(5-(4-(4-fluorobenzoyl)piperidine-1-carbonyl)pyridin-2-yl)piperidine-4-carboxamide] returned an EC50 of less than 500 nM. To `CS(=O)(=O)c1ccc(C(=O)C2CCN(C(=O)c3ccc(C(=O)Nc4ccc(Oc5ccc(F)cc5)nc4)cn3)CC2)cc1` [Compound 224, N-(6-(4-fluorophenoxy)pyridin-3-yl)-6-(4-(4-(methylsulfonyl)benzoyl)piperidine-1-carbonyl)nicotinamide] belongs less than 500 nM; to `N#Cc1ccc(CN2CCC(C(=O)Nc3ccc(C(=O)N4CCC(Oc5ccc(F)cc5)CC4)cn3)CC2)cc1` [Compound 173, 1-(4-cyanobenzyl)-N-(5-(4-(4-fluorophenoxy)piperidine-1-carbonyl)pyridin-2-yl)piperidine-4-carboxamide], less than 500 nM; to `N#Cc1ccc(CN2CCC(NC(=O)c3ccc(C(=O)N4CCNCC4)cn3)CC2)cc1` [Compound 2, N-(1-(4-cyanobenzyl)piperidin-4-yl)-5-(piperazine-1-carbonyl)picolinamide], more than 10000 nM. To `COc1ccc(C(=O)C2CCN(C(=O)c3ccc(C(=O)NC4CCN(Cc5ccc(C#N)cc5)CC4(F)F)cn3)CC2)cc1` (centres unmarked) [Compound 498, N-(1-(4-cyanobenzyl)-3,3-difluoropiperidin-4-yl)-6-(4-(4-methoxybenzoyl)piperidine-1-carbonyl)nicotinamide] belongs less than 500 nM; to `O=C(Nc1ccc(C(=O)N2CCN(Cc3ccc(F)cc3)CC2)cn1)c1ccc(Oc2ccc(F)cc2)nc1` [Compound 177, N-(5-(4-(4-fluorobenzyl)piperazine-1-carbonyl)pyridin-2-yl)-6-(4-fluorophenoxy)nicotinamide], 1000 to 5000 nM. To `COc1ccc(CN2CCC(NC(=O)c3ccc(C(=O)N4CCC(C(=O)c5ccc(OC)cc5)CC4)nc3)CC2)cc1` [Compound 318, 6-(4-(4-methoxybenzoyl)piperidine-1-carbonyl)-N-(1-(4-methoxybenzyl)piperidin-4-yl) nicotinamide] belongs less than 500 nM; to `CS(=O)(=O)c1ccc(C(=O)C2CCN(C(=O)c3ccc(C(=O)NC4CCN(Cc5ccc(C#N)cc5)CC4)nc3)CC2)cc1` [Compound 228, N-(1-(4-cyanobenzyl)piperidin-4-yl)-5-(4-(4-(methylsulfonyl)benzoyl)piperidine-1-carbonyl)picolinamide], less than 500 nM. The compound `N#Cc1ccc(CN2CCC(NC(=O)c3ccc(C(=O)N4CCC(Oc5ccc(NC(=O)C6CC6)cc5)CC4)nc3)CC2)cc1` [Compound 409, N-(1-(4-cyanobenzyl)piperidin-4-yl)-6-(4-(4-(cyclopropanecarboxamido)phenoxy)piperidine-1-carbonyl)nicotinamide] came in with an EC50 of less than 500 nM. Under `O=C(Nc1ccc(Oc2ccc(F)cc2)nc1)c1ccc(C(=O)N2CCC(Oc3ccc(F)cc3)CC2)cn1` [Compound 273, 5-(4-(4-fluorophenoxy)piperidine-1-carbonyl)-N-(6-(4-fluorophenoxy)pyridin-3-yl)picolinamide] stands less than 500 nM.

`COc1ccc(C(=O)C2CCN(C(=O)c3ccc(C(=O)N[C@@H]4CCN(Cc5csc(C)n5)C[C@@H]4F)cn3)CC2)cc1` [Compound 427, N-((3S,4R)-3-fluoro-1-((2-methylthiazol-4-yl)methyl)piperidin-4-yl)-6-(4-(4-methoxybenzoyl)piperidine-1-carbonyl)nicotinamide] registered a concentration giving a half-maximal response (EC50) of 1000 to 5000 nM. To `O=C(N[C@H]1CC[C@@H](Oc2cc(F)cc(F)c2)CC1)c1ccc(C(=O)N2CCC(Oc3ccc(F)cc3)CC2)cn1` [Compound 299, N-((cis)-4-(3,5-difluorophenoxy)cyclohexyl)-5-(4-(4-fluorophenoxy)piperidine-1-carbonyl)picolinamide] belongs less than 500 nM. Under `N#Cc1ccc(CN2CCC(NC(=O)c3ccc(C(=O)N4CCC(C(=O)c5ccc(F)cc5F)CC4)cn3)CC2)cc1` [Compound 271, N-(1-(4-cyanobenzyl)piperidin-4-yl)-5-(4-(2,4-difluorobenzoyl)piperidine-1-carbonyl)picolinamide] stands less than 500 nM; under `CS(=O)(=O)c1ccc(C(=O)C2CCN(C(=O)c3ccc(C(=O)N[C@@H]4CCN(Cc5ccc(C#N)cc5)C[C@H]4F)nc3)CC2)cc1` (relative stereo) [Compound 252, N-((trans)-1-(4-cyanobenzyl)-3-fluoropiperidin-4-yl)-5-(4-(4-(methylsulfonyl)benzoyl)piperidine-1-carbonyl)picolinamide], 500 to 1000 nM; under `O=C(NCc1ccccc1)c1ccc(C(=O)N2CCN(Cc3ccccc3)CC2)cn1` [Compound 116, N-benzyl-5-(4-benzylpiperazine-1-carbonyl)picolinamide], 1000 to 5000 nM. `C[S+]([O-])c1ccc(C(=O)C2CCN(C(=O)c3ccc(C(=O)NC4CC[N+]([O-])(Cc5ccc(C#N)cc5)CC4)nc3)CC2)cc1` (centres unmarked) [Compound 374, 1-(4-cyanobenzyl)-4-(5-(4-(4-(methylsulfinyl)benzoyl)piperidine-1-carbonyl)picolinamido)piperidine 1-oxide] gave a concentration for a half-maximal effect (EC50) of more than 10000 nM. Under `CS(=O)(=O)Nc1ccc(CN2CCC(NC(=O)c3ccc(C(=O)N4CCC(C(=O)c5ccc(F)cc5F)CC4)nc3)CC2)cc1` [Compound 216, 6-(4-(2,4-difluorobenzoyl)piperidine-1-carbonyl)-N-(1-(4-(methylsulfonamido)benzyl)piperidin-4-yl)nicotinamide] stands more than 10000 nM. To `O=C(Nc1ccc(-c2cc[nH]c2)cc1)c1ccc(C(=O)N2CCN(Cc3ccc(F)cc3)CC2)cn1` [Compound 39, 5-(4-(4-fluorobenzyl)piperazine-1-carbonyl)-N-(4-(1H-pyrrol-3-yl)phenyl)picolinamide] belongs 1000 to 5000 nM. To `CC(C)(C)OC(=O)N1CCC(NC(=O)c2ccc(C(=O)N3CCC(Oc4ccc(C#N)cc4)CC3)nc2)CC1` [Compound 333, tert-butyl 4-(6-(4-(4-cyanophenoxy)piperidine-1-carbonyl)nicotinamido) piperidine-1-carboxylate] belongs less than 500 nM; to `O=C(NC1CCN(Cc2cc(F)cc(F)c2)CC1)c1ccc(C(=O)N2CC[C@H](Oc3ccc(F)cc3)C2)cn1` [Compound 292, N-(1-(3,5-difluorobenzyl)piperidin-4-yl)-5-((S)-3-(4-fluorophenoxy)pyrrolidine-1-carbonyl)picolinamide], less than 500 nM; to `O=C(Nc1ccc(Oc2ccc(F)cc2)nc1)c1ccc(C(=O)N2CCC(C(=O)c3ccc(F)cc3)CC2)cn1` [Compound 272, 5-(4-(4-fluorobenzoyl)piperidine-1-carbonyl)-N-(6-(4-fluorophenoxy)pyridin-3-yl)picolinamide], less than 500 nM.
